Laboratory results as given in ChEMBL document CHEMBL5375999, “Discovery of a Dual Tubulin and Neuropilin-1 (NRP1) Inhibitor with Potent In Vivo Anti-Tumor Activity via Pharmacophore-based Docking Screening, Structure Optimization, and Biological Evaluation” (J Med Chem, 2023).
Blank lines part the entries; values can stand above or below the molecule they belong to. Active and inactive are the calls of the source. The calls are words filed in the database; no cut-off is given here.

What was measured:
Tubulin (Homo sapiens) = Tubulin (Homo sapiens) (UniProt P68371+Q9H4B7+P0DPH7+P68366+Q13509+Q71U36+P04350+Q3ZCM7+P07437+P68363+Q9BQE3+Q6PEY2+Q13885+Q9BVA1+Q9BUF5); test: Inhibition of tubulin polymerization (unknown origin) at 12 uM by spectrophotometric analysis relative to control; type: protein-complex assay
[1] = target: Neuropilin-1 (Homo sapiens) (UniProt O14786); test: Inhibition of [125I]-VEGF-A165 binding to NRP1 (unknown origin) transfected in HUVECs at 12 uM incubated for 2 hrs by plate reader analysis relative to control; type: cell-based; conditions: HUVEC
Target sequence in this assay (O14786 whole entry): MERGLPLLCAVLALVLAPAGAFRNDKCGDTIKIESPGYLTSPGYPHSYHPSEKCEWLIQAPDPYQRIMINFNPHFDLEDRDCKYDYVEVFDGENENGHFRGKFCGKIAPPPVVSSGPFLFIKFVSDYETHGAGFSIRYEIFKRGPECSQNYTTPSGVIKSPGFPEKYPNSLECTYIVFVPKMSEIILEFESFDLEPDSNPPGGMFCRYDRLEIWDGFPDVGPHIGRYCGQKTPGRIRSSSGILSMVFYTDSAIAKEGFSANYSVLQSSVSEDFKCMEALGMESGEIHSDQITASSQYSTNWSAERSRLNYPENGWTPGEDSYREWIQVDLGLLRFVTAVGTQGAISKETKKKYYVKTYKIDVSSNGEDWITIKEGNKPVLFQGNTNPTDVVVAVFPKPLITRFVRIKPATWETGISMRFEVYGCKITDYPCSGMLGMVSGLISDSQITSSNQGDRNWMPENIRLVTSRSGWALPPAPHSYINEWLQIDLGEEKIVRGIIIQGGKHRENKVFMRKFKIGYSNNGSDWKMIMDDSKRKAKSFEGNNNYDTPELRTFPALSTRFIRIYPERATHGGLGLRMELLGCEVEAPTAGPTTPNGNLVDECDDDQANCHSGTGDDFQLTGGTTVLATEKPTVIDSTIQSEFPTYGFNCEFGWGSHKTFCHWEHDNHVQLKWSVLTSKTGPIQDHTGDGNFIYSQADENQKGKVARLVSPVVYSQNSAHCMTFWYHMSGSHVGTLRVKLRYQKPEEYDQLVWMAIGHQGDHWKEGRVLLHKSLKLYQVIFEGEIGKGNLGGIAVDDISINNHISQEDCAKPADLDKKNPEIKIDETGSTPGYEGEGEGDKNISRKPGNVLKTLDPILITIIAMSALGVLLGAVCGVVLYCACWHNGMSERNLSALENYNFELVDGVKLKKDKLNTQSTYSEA

[2] = target: Neuropilin-1 (Homo sapiens) (UniProt O14786); test: Inhibition of [125I]-VEGF-A165 binding to NRP1 (unknown origin) transfected in HUVECs incubated for 2 hrs by plate reader analysis; conditions: HUVEC
Target sequence in this assay (O14786 whole entry, looked up): as the sequence (O14786 whole entry) above

PC-3 = test: Cytotoxicity against human PC-3 cells assessed as inhibition of cell viability incubated for 48 hrs by MTT assay; type: functional, cell-based; conditions: PC-3, 48 h
[3] = Cytotoxicity against human PrEC cells assessed as inhibition of cell viability incubated for 48 hrs by MTT assay; type: toxicity, cell-based
Tubulin = test: Inhibition of tubulin polymerization (unknown origin) by spectrophotometric analysis; type: protein-complex assay, Homo sapiens

inhibition (Tubulin (Homo sapiens)): 45%
Compound: COc1cc(C(=O)/C=C/Nc2cccc(C)c2)cc(OC)c1OC

inhibition (Tubulin (Homo sapiens)): 64% | inhibition [1]: 47%
Compound: COc1cc(C(O)c2cc3c(cc2CO)OCO3)cc(OC)c1OC (stereo not drawn)

inhibition (Tubulin (Homo sapiens)): 71%
Compound: COc1cc(O)c(/C=C/C(=O)c2cc(OC)c(OC)c(OC)c2)c(OC)c1

inhibition [2]: inactive
Compound: COC(=O)[C@H](CCCNC(=N)N)NC(=O)CCCCCCC(=O)Nc1cc(/C=C\c2cc(OC)c(OC)c(OC)c2)ccc1OC

Compound: COc1ccc(/C=C\c2cc(OC)c(OC)c(OC)c2)cc1O [COMBRETASTATIN A4]
IC50 (PC-3): 0.06 µM | inhibition [2]: inactive | IC50 at 48 h [3]: 0.08 µM

inhibition [1]: 79%
Compound: N=C(N)NCCC[C@H](NC(=O)c1ccccc1)C(=O)O

inhibition (Tubulin (Homo sapiens)): 52%
Compound: COc1ccc2c(c1)OC(c1cc(OC)c(OC)c(OC)c1)CC2=O (stereo not drawn)

IC50 (Tubulin): 5.57 µM
Compound: COc1ccc(/C=C\c2cc(OC)c(OC)c(OC)c2)cc1NC(=O)CCCC(=O)N[C@@H](CCCNC(=N)N)C(=O)O

inhibition [2]: inactive | IC50 (Tubulin): 4.14 µM
Compound: COC(=O)[C@H](CCCNC(=N)N)NC(=O)/C=C/C(=O)Nc1cc(/C=C\c2cc(OC)c(OC)c(OC)c2)ccc1OC

inhibition (Tubulin (Homo sapiens)): 48%
Compound: COc1cc([C@@H]2CC(=O)c3cnc(N4CCN(CCO)CC4)nc3C2)cc(OC)c1OC

inhibition (Tubulin (Homo sapiens)): 28%
Compound: COc1cc(-c2cc(-n3c(S)nc4ccccc4c3=O)[nH]n2)cc(OC)c1OC

inhibition (Tubulin (Homo sapiens)): 69%
Compound: COc1cc2c(cc1OC)C(c1cc(OC)c(OC)c(OC)c1)OCC2 (stereo not drawn)

inhibition [1]: 60%
Compound: N=C(N)NCC(C[C@H](NCc1ccccc1)C(=O)O)[N+](=O)[O-] (stereo partly drawn)

inhibition [1]: 87%
Compound: N=C(N)NCCC[C@H](NC(=O)c1sccc1NS(=O)(=O)c1cccc2nsnc12)C(=O)O

inhibition (Tubulin (Homo sapiens)): 15%
Compound: COc1cc(C2OC2C(=O)c2ccccc2)cc(OC)c1OC (stereo not drawn)

inhibition [2]: inactive | IC50 (Tubulin): 9.34 µM
Compound: COC(=O)[C@H](CCCNC(=N)N)NC(=O)CCCCC(=O)Nc1cc(/C=C\c2cc(OC)c(OC)c(OC)c2)ccc1OC

IC50 (Tubulin): 1.53 µM
Compound: COc1ccc(/C=C\c2cc(OC)c(OC)c(OC)c2)cc1NC(=O)/C=C/C(=O)N[C@@H](CCCNC(=N)N)C(=O)O

inhibition (Tubulin (Homo sapiens)): 21%
Compound: COc1cc(-c2cc(C(F)(F)F)n3ncc(C(=O)NCC(C)C)c3n2)cc(OC)c1OC

IC50 (Tubulin): 7.15 µM
Compound: COc1ccc(/C=C\c2cc(OC)c(OC)c(OC)c2)cc1NC(=O)CCCCC(=O)N[C@@H](CCCNC(=N)N)C(=O)O

inhibition [2]: inactive | IC50 (Tubulin): 7.96 µM
Compound: COC(=O)[C@H](CCCNC(=N)N)NC(=O)CCCC(=O)Nc1cc(/C=C\c2cc(OC)c(OC)c(OC)c2)ccc1OC

inhibition (Tubulin (Homo sapiens)): 63%
Compound: COc1cc(C(=O)/C=C/c2c[nH]c3ccc(Br)cc23)cc(OC)c1OC

inhibition [1]: 82%
Compound: Cc1ccc(S(=O)(=O)N[C@@H](CCCNC(=N)N)C(=O)O)cc1
